Laboratory results taken from US10774071B2, “PD-1/PD-L1 inhibitors” (Gilead Sciences, Inc., priority 2018, dated 2020).
Read-outs that look alike come from different tables or passages of the source.

Experiments:
PD-L1 = PD-L1 (Homo sapiens (Human), UniProt Q9NZQ7); assay: PD-L1/PD-L1 dimerization biochemical protein-protein interaction assay (ALPHA); assay type: binding; settings: read-out: AC50 PDL1 Dimer 1 nM
PD-1/PD-L1 = PD-1/PD-L1 (Homo sapiens (Human), UniProt Q9NZQ7); assay: PD-1/PD-L1 biochemical protein-protein interaction assay (ALPHA); assay type: binding; settings: read-out: IC50 PD-L1-PD1
[1] = 0.5 nM His tagged PD-L1 and 0.5 nM FLAG tagged PD-L1, Table 4B
[2] = 0.3 nM His tagged PD-L1, 2.5 nM biotinylated Fc-PD-1, Table 3B
[3] = 0.5 nM His tagged PD-L1 and 0.5 nM FLAG tagged PD-L1, Table 4A
[4] = 0.3 nM His tagged PD-L1, 2.5 nM biotinylated Fc-PD-1, readings of 0.064 nM are equal to or less than 0.064 nM

Chain of PD-1/PD-L1 (Q9NZQ7 19-238): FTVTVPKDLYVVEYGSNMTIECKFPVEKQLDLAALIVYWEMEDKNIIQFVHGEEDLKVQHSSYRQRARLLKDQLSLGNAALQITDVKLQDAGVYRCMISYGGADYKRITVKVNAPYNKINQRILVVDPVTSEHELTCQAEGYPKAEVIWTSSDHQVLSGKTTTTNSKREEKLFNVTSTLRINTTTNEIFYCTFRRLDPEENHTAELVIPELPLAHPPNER
Chain of PD-L1 (Q9NZQ7 19-238): as above
Chain of PD-L1 (Q9NZQ7 19-238): as above

| AC50 (PD-L1; [1]) [nM] | IC50 (PD-1/PD-L1; [2]) [nM] | AC50 (PD-L1; [3]) [nM] | IC50 (PD-1/PD-L1; [4]) [nM] | SMILES |
| --- | --- | --- | --- | --- |
| 39.1 | 0.064 |  |  | COc1nc(-c2cccc(-c3cccc4c3CC[C@@H]4Oc3nc(OC)c(CN4CC[C@@H](C(=O)N=S(C)(=O)NC(C)=O)C4)cc3Cl)c2Cl)ccc1CNC[C@@H]1CCC(=O)N1 (stereo partly shown) [B-163] |
|  |  | 43.1 | ≤ 0.064 | COc1nc(-c2cccc(-c3cccc4c3CC[C@@H]4Nc3nc(OC)c(CN[C@@H](C)C(N)=O)nc3C(F)(F)F)c2Cl)ccc1CNC[C@@H]1CCC(=O)N1 [A-102] |
| 51.6 | 0.064 |  |  | COc1cc(O[C@H]2CCc3c(-c4cccc(-c5ccc(CNC[C@@H]6CCC(=O)N6)c(OC)n5)c4Cl)cccc32)c(Cl)cc1CN1CC[C@H](C(=O)O)C1 [B-167] |
|  |  | 13.5 | ≤ 0.064 | COc1nc(-c2cccc(-c3cccc4c3CC[C@@H]4Nc3nc(OC)c(CN4CC[C@@](C)(C(=O)O)C4)cc3C(F)(F)F)c2Cl)ccc1CNC[C@@H]1CCC(=O)N1 [A-2, (R)-1-((6-(((S)-4-(2-chloro-3-(6-methoxy-5-(((((S)-5-oxopyrrolidin-2-yl)methyl)amino)methyl)pyridin-2-yl)phenyl)-2,3-dihydro-1H-inden-1-yl)amino)-2-methoxy-5-(trifluoromethyl)pyridin-3-yl)methyl)-3-methylpyrrolidine-3-carboxylic acid] |
| 18 | 0.064 |  |  | COc1nc(O[C@H]2CCc3c(-c4cccc(-c5cc(C)c(CNC[C@@H]6CCC(=O)N6)c(OC)n5)c4Cl)cccc32)c(C)cc1CNC1(C(=O)O)CC1 [B-244] |
| 94.1 | 0.064 |  |  | COc1nc(-c2cccc(-c3cccc4c3CC[C@@H]4Oc3nc(OC)c(CN4CC(C(=O)O)C4)cc3Cl)c2C#N)ccc1CNC[C@@H]1CCC(=O)N1 [B-74] |
| 31.5 | 0.064 |  |  | COc1nc(-c2cccc(-c3cccc4c3CC[C@@H]4Oc3nc(OC)c(CN4CC[C@@H](C(=O)O)C4)nc3Cl)c2Cl)ccc1CNC[C@@H]1CCC(=O)N1 [B-154] |
| 7.89 | 0.064 |  |  | COc1nc(-c2cccc(-c3cccc4c3CC[C@@H]4Oc3nc(OC)c(CN[C@H](C(=O)O)C4CC4)cc3C(F)(F)F)c2Cl)ccc1CN[C@H]1C[C@](C)(O)C1 [B-255] |
|  |  | 9.89 | ≤ 0.064 | COc1cc(-c2cccc(-c3cccc4c3CC[C@@H]4Nc3nc(OC)c(CN(C)CC(=O)O)nc3C(F)(F)F)c2Cl)cc(F)c1CNC[C@@H]1CCC(=O)N1 [A-30] |
|  |  | 13.4 | ≤ 0.064 | COc1nc(-c2cccc(-c3cccc4c3CC[C@@H]4Nc3nc(OC)c(CN[C@@H](C)C(=O)O)nc3C(F)(F)F)c2Cl)ccc1CN1CC(O)C1 [A-72] |
| 42.1 | 0.064 |  |  | COc1nc(O[C@H]2CCc3c(-c4cccc(-c5ccc(CNC[C@@H]6CCC(=O)N6)c(OC)c5F)c4Cl)cccc32)c(Cl)cc1CN1CC[C@@H](C(=O)O)C1 [B-143] |
|  |  | 9.07 | ≤ 0.064 | COc1nc(-c2cccc(-c3cccc4c3CC[C@@H]4Nc3nc(OC)c(CN[C@@H](C)C(=O)O)nc3C(F)(F)F)c2Cl)ccc1CN1CC(C)(O)C1 [A-74] |
|  |  | 5.57 | ≤ 0.064 | COc1nc(N[C@H]2CCc3c(-c4cccc(-c5ccc(CNC[C@@H]6CCC(=O)N6)c(OCC#N)n5)c4Cl)cccc32)c(C(F)(F)F)cc1CNC1(C(=O)O)CC1 [A-29] |
| 33.8 | 0.064 |  |  | COc1nc(O[C@H]2CCc3c(-c4cccc(-c5cnc([C@H](C)NC[C@@H]6CCC(=O)N6)c(OC)n5)c4Cl)cccc32)c(Cl)cc1CN1CC[C@@H](C(=O)O)C1 [B-91] |
|  |  | 18.1 | ≤ 0.064 | COc1nc(N[C@H]2CCc3c(-c4cccc(-c5ccc(CNC[C@@H]6CCC(=O)N6)c(OCC#N)n5)c4Cl)cccc32)c(C(F)(F)F)cc1CN1CCC[C@]1(C)C(=O)O [A-28] |
| 17.5 | 0.064 |  |  | COc1nc(-c2cccc(-c3cccc4c3CC[C@@H]4Oc3nc(OC)c(CN4CC[C@@H](C(=O)O)C4)cc3C(F)(F)F)c2Cl)ccc1CN[C@H]1C[C@](C)(O)C1 [B-2] |

| AC50 (PD-L1; [1]) [nM] | IC50 (PD-1/PD-L1; [2]) [nM] | AC50 (PD-L1; [3]) [nM] | IC50 (PD-1/PD-L1; [4]) [nM] | SMILES |
| --- | --- | --- | --- | --- |
| 27.5 | 0.064 |  |  | COc1nc(-c2cccc(-c3cccc4c3CC[C@@H]4Oc3nc(OC)c(CN4CC5(C(=O)O)CCC4CC5)cc3Cl)c2Cl)ccc1CN1CC[C@@H](O)C1 [B-51] |
|  |  | 13.2 | ≤ 0.064 | COc1nc(-c2cccc(-c3cccc4c3CC[C@@H]4Nc3nc(OC)c(CN4CC5(C(=O)O)CCC4CC5)cc3C(F)(F)F)c2Cl)ccc1CNC[C@@H]1CCC(=O)N1 [A-1] |
| 15.3 | 0.064 |  |  | COc1nc(-c2cccc(-c3cccc4c3CC[C@@H]4Oc3nc(OC)c(CN4C[C@H]5C[C@@]5(C(=O)O)C4)cc3C(F)(F)F)c2Cl)ccc1CNC[C@@H]1CCC(=O)N1 [B-198] |
|  |  | 6.81 | ≤ 0.064 | COc1nc(-c2cccc(-c3cccc4c3CC[C@@H]4Nc3nc(OC)c(CNC(C)(C)C(=O)O)cc3C(F)(F)F)c2Cl)ccc1CNC[C@@H]1CCC(=O)N1 [A-40] |
| 11.9 | 0.064 |  |  | COc1nc(-c2cccc(-c3cccc4c3CC[C@@H]4Oc3nc(OC)c(CNC4(C(=O)O)CC4)cc3C(F)(F)F)c2Cl)ccc1CNC[C@H]1C[C@](C)(O)C1 [B-207] |
|  |  | 52.4 | ≤ 0.064 | COc1nc(-c2cccc(-c3cccc4c3CC[C@@H]4Nc3nc(OC)c(CN4CC(C)(O)C4)nc3C(F)(F)F)c2Cl)ccc1CN1CC[C@@H](C(=O)O)C1 [A-71] |
|  |  | 8.17 | ≤ 0.064 | COc1nc(-c2cccc(-c3cccc4c3CC[C@@H]4Nc3nc(OC)c(CNC4(C(=O)O)CCC4)cc3C(F)(F)F)c2Cl)ccc1CNCC1CCC(=O)N1 (stereo partly shown) [A-22] |
| 7.58 | 0.064 |  |  | COc1nc(-c2cccc(-c3cccc4c3CC[C@@H]4Oc3nc(OC)c(CN[C@@H](C)C(=O)O)cc3C)c2Cl)ccc1CNC[C@@H]1CCC(=O)N1 [B-241] |
|  |  | 113 | ≤ 0.064 | COc1nc(-c2cccc(-c3cccc4c3CC[C@@H]4Nc3nc(OC)c(CN4CC5(C(=O)O)CCC4CC5)cc3Cl)c2Cl)ccc1CNC[C@@H]1CCC(=O)N1 [A-5] |
|  |  | 18.1 | ≤ 0.064 | COc1nc(-c2cccc(-c3cccc4c3CC[C@@H]4Nc3nc(OC)c(CNCC(=O)O)nc3C(F)(F)F)c2Cl)ccc1CN1CC(C)(O)C1 [A-75] |
|  |  | 83 | ≤ 0.064 | COc1nc(-c2cccc(-c3cccc4c3CC[C@@H]4Nc3nc(OC)c(CNCCC(=O)O)nc3C(F)(F)F)c2Cl)ccc1CN[C@H]1C[C@](C)(O)C1 [A-93] |
| 78.5 | 0.084 |  |  | COc1nc(O[C@H]2CCc3c(-c4cccc(-c5cc(C)c(CN6C[C@@H]7[C@H](C6)[C@H]7C(=O)O)c(OC)n5)c4Cl)cccc32)c(Cl)cc1CNC[C@@H]1CCC(=O)N1 [B-124] |
|  |  | 14.3 | ≤ 0.064 | COc1nc(-c2cccc(-c3cccc4c3CC[C@@H]4Nc3nc(OC)c(CN4CC[C@@H](C(=O)O)C4)cc3C(F)(F)F)c2Cl)ccc1CNC[C@@H]1CCC(=O)N1 [A-4] |
| 11.8 | 0.064 |  |  | COc1nc(-c2cccc(-c3cccc4c3CC[C@@H]4Oc3nc(OC)c(CNC4(C(=O)O)CC4)cc3C(F)(F)F)c2Cl)ccc1CN1CC2(C1)CN(C(C)=O)C2 [B-168] |
| 46.5 | 0.095 |  |  | COc1nc(-c2cccc(-c3cccc4c3CC[C@@H]4Oc3nc(OC)c(CNC[C@@H]4CCC(=O)N4)nc3Br)c2Cl)cnc1CNC[C@@H]1CCC(=O)N1 [B-38] |

| SMILES | AC50 (PD-L1; [1]) [nM] | IC50 (PD-1/PD-L1; [2]) [nM] | AC50 (PD-L1; [3]) [nM] | IC50 (PD-1/PD-L1; [4]) [nM] |
| --- | --- | --- | --- | --- |
| COc1nc(-c2cccc(-c3cccc4c3CC[C@@H]4Oc3nc(OC)c(CN4C5CCC4(C(=O)O)CC5)cc3C(F)(F)F)c2Cl)ccc1CN1CC2(CCC(=O)N2)C1 [B-227] | 3.12 | 0.064 |  |  |
